Laboratory results published in ChEMBL document CHEMBL4715817, “Python Cathelicidin CATHPb1 Protects against Multidrug-Resistant Staphylococcal Infections by Antimicrobial-Immunomodulatory Duality” (J Med Chem, 2018).
Active and inactive are the calls of the source. The rule behind the calls is not given here. Peptide text beside a SMILES is read from it.

Tests used:
[1] = tested on: Macrophage; assay: Immunomodulatory activity in mouse peritoneal macrophage assessed as inhibition of LPS-induced IL-6 level at 5 to 20 ug/ml measured after 6 hrs by qRT-PCR analysis; format: functional, tissue-based; settings: dose 5-20 µg/ml
[2] = tested on: Macrophage; assay: Immunomodulatory activity in mouse peritoneal macrophage assessed as inhibition of LPS-induced MCP-1 level at 5 to 20 ug/ml measured after 6 hrs by qRT-PCR analysis; format: functional, tissue-based; settings: dose 5-20 µg/ml
[3] = tested on: Macrophage; assay: Immunomodulatory activity in mouse peritoneal macrophage assessed as inhibition of LPS-induced MCP-1 level at 5 to 20 ug/ml measured after 24 hrs by ELISA; format: functional, tissue-based; settings: dose 5-20 µg/ml
[4] = tested on: Macrophage; assay: Immunomodulatory activity in mouse peritoneal macrophage assessed as inhibition of LPS-induced IL-1beta level at 5 to 20 ug/ml measured after 24 hrs by ELISA; format: functional, tissue-based; settings: dose 5-20 µg/ml
[5] = tested on: Macrophage; assay: Immunomodulatory activity in mouse peritoneal macrophage assessed as inhibition of LPS-induced IL-6 level at 5 to 20 ug/ml measured after 24 hrs by ELISA; format: functional, tissue-based; settings: dose 5-20 µg/ml
[6] = tested on: Macrophage; assay: Immunomodulatory activity in mouse peritoneal macrophage assessed as inhibition of LPS-induced IL-1beta level at 5 to 20 ug/ml measured after 6 hrs by qRT-PCR analysis; format: functional, tissue-based; settings: dose 5-20 µg/ml
[7] = tested on: Macrophage; assay: Immunomodulatory activity in mouse peritoneal macrophage assessed as inhibition of LPS-induced TNF-alpha level at 5 to 20 ug/ml measured after 24 hrs by ELISA; format: functional, tissue-based; settings: dose 5-20 µg/ml
[8] = tested on: Macrophage; assay: Immunomodulatory activity in mouse peritoneal macrophage assessed as inhibition of LPS-induced TNF-alpha level at 5 to 20 ug/ml measured after 6 hrs by qRT-PCR analysis; format: functional, tissue-based; settings: dose 5-20 µg/ml
[9] = tested on: Macrophage; assay: Immunomodulatory activity in mouse peritoneal macrophage assessed as inhibition of LPS-induced TNF-alpha level at 20 ug/ml measured after 6 hrs by qRT-PCR analysis; format: functional, tissue-based; settings: dose 20.0 µg/ml
[10] = tested on: Macrophage; assay: Immunomodulatory activity in mouse peritoneal macrophage assessed as inhibition of LPS-induced IL-6 level at 20 ug/ml measured after 6 hrs by qRT-PCR analysis; format: functional, tissue-based; settings: dose 20.0 µg/ml
[11] = tested on: Macrophage; assay: Immunomodulatory activity in mouse peritoneal macrophage assessed as inhibition of LPS-induced IL-1beta level at 20 ug/ml measured after 24 hrs by ELISA; format: functional, tissue-based; settings: dose 20.0 µg/ml
[12] = tested on: Macrophage; assay: Immunomodulatory activity in mouse peritoneal macrophage assessed as inhibition of LPS-induced IL-1beta level at 20 ug/ml measured after 6 hrs by qRT-PCR analysis; format: functional, tissue-based; settings: dose 20.0 µg/ml
[13] = tested on: Macrophage; assay: Immunomodulatory activity in mouse peritoneal macrophage assessed as inhibition of LPS-induced IL-6 level at 20 ug/ml measured after 24 hrs by ELISA; format: functional, tissue-based; settings: dose 20.0 µg/ml
[14] = tested on: Macrophage; assay: Immunomodulatory activity in mouse peritoneal macrophage assessed as inhibition of LPS-induced TNF-alpha level at 20 ug/ml measured after 24 hrs by ELISA; format: functional, tissue-based; settings: dose 20.0 µg/ml
[15] = Immunomodulatory activity in mouse peritoneal macrophage assessed as inhibition of LPS-induced IL-6 level measured after 24 hrs by ELISA; format: functional; parameters: scale not given: the % may be the effect or the level left; settings: dose 5-20 µg/ml, at 5 to 20 µg/mL
[16] = tested on: Staphylococcus aureus; assay: In vivo antibacterial activity against methicillin sensitive Staphylococcus aureus ATCC 25923 infected in kunming mouse assessed as increase in survival rate at 10 mg/kg, ip administered 4 hrs after infection and measured up to 7 days after infection relative to control; format: functional; settings: time day <=7

| Compound | inhibition [1] | inhibition [2] | inhibition [3] | inhibition [4] | inhibition [5] | inhibition [6] | inhibition [7] | inhibition [8] | inhibition [9] | inhibition [10] | inhibition [11] | inhibition [12] | inhibition [13] | inhibition [14] | Activity [15] [%] | Activity [16] [%] |
| --- | --- | --- | --- | --- | --- | --- | --- | --- | --- | --- | --- | --- | --- | --- | --- | --- |
| CC[C@H](C)[C@H](NC(=O)[C@H](CO)NC(=O)[C@H](CO)NC(=O)CNC(=O)CNC(=O)CNC(=O)[C@H](C)NC(=O)[C@H](Cc1ccccc1)NC(=O)[C@H](Cc1ccccc1)NC(=O)[C@H](CCCCN)NC(=O)[C@H](CCCCN)NC(=O)[C@H](CC(C)C)NC(=O)[C@H](CCCNC(=N)N)NC(=O)[C@H](CCCNC(=N)N)NC(=O)[C@H](CCSC)NC(=O)[C@H](Cc1ccccc1)NC(=O)[C@H](CCCCN)NC(=O)[C@H](CCCNC(=N)N)NC(=O)[C@H](Cc1ccccc1)NC(=O)CNC(=O)[C@H](CC(N)=O)NC(=O)[C@H](CCCNC(=N)N)NC(=O)[C@@H](N)CCCCN)C(=O)N[C@@H](C)C(=O)N[C@@H](Cc1cnc[nH]1)C(=O)N[C@H](C(=O)N[C@@H](CCCCN)C(=O)N[C@@H](CC(C)C)C(=O)N[C@@H](Cc1cnc[nH]1)C(=O)O)[C@@H](C)CC (H-KRNGFRKFMRRLKKFFAGGGSSIAHIKLH-OH) | Active | Active | Active | Active | Active | Active | Active | Active | – | – | – | – | – | – | – | – |
| CSCC[C@H](NC(=O)[C@H](C)NC(=O)[C@H](CCCNC(=N)N)NC(=O)[C@H](CC(C)C)NC(=O)[C@H](CCCNC(=N)N)NC(=O)[C@H](CCCNC(=N)N)NC(=O)[C@H](CCC(N)=O)NC(=O)[C@@H]1CCCN1C(=O)[C@H](C)NC(=O)[C@H](C)NC(=O)[C@@H](N)CCCNC(=N)N)C(=O)N[C@@H](C)C(=O)N[C@@H](CCCNC(=N)N)C(=O)N[C@@H](CC(C)C)C(=O)N[C@@H](CCCCN)C(=O)N[C@@H](CCCCN)C(=O)N[C@@H](Cc1ccccc1)C(=O)N[C@@H](C)C(=O)N[C@@H](CCC(=O)O)C(=O)N[C@@H](C)C(=O)NCC(=O)NCC(=O)N[C@@H](C)C(=O)N[C@@H](CC(=O)O)C(=O)N1CCC[C@H]1C(=O)N[C@@H](CC(=O)O)C(=O)N[C@@H](CO)C(=O)NCC(=O)NCC(=O)N[C@@H](CC(C)C)C(=O)N[C@@H](CCCNC(=N)N)C(=O)N[C@@H](C)C(=O)N[C@@H](CCCNC(=N)N)C(=O)N[C@@H](Cc1ccccc1)C(=O)N1CCC[C@H]1C(=O)N[C@@H](CCC(=O)O)C(=O)N[C@@H](CCCNC(=N)N)C(=O)O (H-RAAPQRRLRAMARLKKFAEAGGADPDSGGLRARFPER-OH) | – | – | – | – | – | – | – | – | Active | Active | Active | Active | Active | Active | – | – |
| CC[C@H](C)[C@H](NC(=O)[C@H](CCCNC(=N)N)NC(=O)[C@H](Cc1c[nH]c2ccccc12)NC(=O)CNC(=O)[C@H](Cc1ccc(O)cc1)NC(=O)[C@H](CCCNC(=N)N)NC(=O)[C@H](CCCNC(=N)N)NC(=O)[C@H](C)NC(=O)[C@H](Cc1ccccc1)NC(=O)[C@H](CCCNC(=N)N)NC(=O)CNC(=O)[C@H](C)NC(=O)CNC(=O)[C@H](CCCNC(=N)N)NC(=O)[C@@H](NC(=O)[C@H](Cc1ccccc1)NC(=O)[C@H](CCCNC(=N)N)NC(=O)[C@H](CCCNC(=N)N)NC(=O)[C@H](Cc1c[nH]c2ccccc12)NC(=O)[C@H](CCCNC(=N)N)NC(=O)[C@H](CO)NC(=O)[C@H](CCCNC(=N)N)NC(=O)[C@@H](N)[C@@H](C)O)[C@@H](C)CC)C(=O)N[C@@H](C)C(=O)N[C@@H](CC(C)C)C(=O)NCC(=O)N[C@@H](CC(C)C)C(=O)N[C@H](C(=O)NCC(=O)O)C(C)C (H-TRSRWRRFIRGAGRFARRYGWRIALGLVG-OH) | Active | Active | Active | Active | Active | Active | Active | Active | – | – | – | – | – | – | 65.59 | – |
| CN[C@H](CC(C)C)C(=O)N[C@H]1C(=O)N[C@@H](CC(N)=O)C(=O)N[C@H]2C(=O)N[C@H]3C(=O)N[C@H](C(=O)N[C@H](C(=O)O)c4cc(O)cc(O)c4-c4cc3ccc4O)[C@H](O)c3ccc(c(Cl)c3)Oc3cc2cc(c3O[C@@H]2O[C@H](CO)[C@@H](O)[C@H](O)[C@H]2O[C@H]2C[C@](C)(N)[C@H](O)[C@H](C)O2)Oc2ccc(cc2Cl)[C@H]1O [VANCOMYCIN] | – | – | – | – | – | – | – | – | – | – | – | – | – | – | – | 35 |
